Experimental data from ChEMBL document CHEMBL5257033, “Pyrrolidinone and pyrrolidine derivatives: Evaluation as inhibitors of InhA and Mycobacterium tuberculosis” (Eur J Med Chem, 2016).
Values after ≈ are worked out from the molar mass of the structure shown.

Key:
Type in all cases: functional
[1] = system: Mycobacterium tuberculosis; experiment: Antimycobacterial activity against Mycobacterium tuberculosis Ty1 harboring Rv3405c C190T mutant assessed as inhibition of bacterial growth measured after 21 days by microbroth dilution method; conditions: time 21 day
[2] = system: Mycobacterium tuberculosis; experiment: Antimycobacterial activity against Mycobacterium tuberculosis 81.10 harboring EthA del (1109 to 37 residues) mutant assessed as inhibition of bacterial growth measured after 21 days by microbroth dilution method; conditions: time 21 day
[3] = system: Mycobacterium tuberculosis; experiment: Antimycobacterial activity against Mycobacterium tuberculosis 53.3 harboring Rv2466c W28S mutant assessed as inhibition of bacterial growth measured after 21 days by microbroth dilution method; conditions: time 21 day
[4] = system: Mycobacterium tuberculosis; experiment: Antimycobacterial activity against streptomycin, isoniazid, rifampicin, ethambutol, pyrazinamide, ethionamide and capreomycin resistant Mycobacterium tuberculosis IC2 assessed as inhibition of bacterial growth measured after 21 days by microbroth dilution method; conditions: IC2, 504 h, time 21 day
[5] = system: Mycobacterium tuberculosis; experiment: Antimycobacterial activity against Mycobacterium tuberculosis DR1 harboring mmpL3 V681I mutant assessed as inhibition of bacterial growth measured after 21 days by microbroth dilution method; conditions: time 21 day
[6] = system: Mycobacterium tuberculosis; experiment: Antimycobacterial activity against Mycobacterium tuberculosis NTB1 harboring DprE1 G387S mutant assessed as inhibition of bacterial growth measured after 21 days by microbroth dilution method; conditions: time 21 day
[7] = system: Mycobacterium tuberculosis; experiment: Antimycobacterial activity against Mycobacterium tuberculosis 88.7 harboring pyrG V186G mutant assessed as inhibition of bacterial growth measured after 21 days by microbroth dilution method; conditions: time 21 day

| Structure (SMILES) | MIC [1] [µg/mL] | MIC [2] [µg/mL] | MIC [3] [µg/mL] | MIC [4] [µg/mL] | MIC [5] [µg/mL] | MIC [6] [µg/mL] | MIC [7] [µg/mL] |
| --- | --- | --- | --- | --- | --- | --- | --- |
| Clc1ccc(CN2CCC(C3c4ccccc4-c4ccccc43)C2)cc1 (centres undefined) | 0.5 (≈ 1.39 µM) | 0.5 (≈ 1.39 µM) | 0.5 (≈ 1.39 µM) | 0.5 (≈ 1.39 µM) | 0.5 (≈ 1.39 µM) | 0.5 (≈ 1.39 µM) | 0.5 (≈ 1.39 µM) |
| NNC(=O)c1ccncc1 [ISONIAZID] | 0.025 (≈ 0.182 µM) | 0.025 (≈ 0.182 µM) | 0.025 (≈ 0.182 µM) | > 0.2 | 0.025 (≈ 0.182 µM) | 0.025 (≈ 0.182 µM) | 0.025 (≈ 0.182 µM) |
